Test results reported in the supplement of paper PMC8498969.

Columns and labels:
HEK293 [1] = test: IC50 for inhibition of ZIKV NS1 production
Procedure: (§1)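 HEK293 cells in 1536-well plates were pre-treated with compound for 1 h, infected with ZIKV (MOI 1) for 24 h, and NS1 antigen (intra- plus extracellular) was measured by TR-FRET. Confirmation used 11-point 1:3 dilutions, and IC50 and maximal inhibition were fitted in GraphPad Prism.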

HEK293 [2] = test: cytotoxicity IC50 (ATP content, uninfected cells); higher = less cytotoxic; conditions: infection: none
HEK293 [3] = test: maximal inhibition of ZIKV NS1 production (% inhibition); higher = stronger antiviral effect
Procedure: as §1

## COc1c(C)c2c(c(O)c1C/C=C(\C)CCC(=O)OCCN1CCOCC1)C(=O)OC2
HEK293 [1]
  IC50: 0.53 µM
HEK293 [2]
  cytotoxicity IC50: > 100 µM
HEK293 [3]
  maximal inhibition: 105

## C/C=C(\C)C(=O)N[C@@H](c1ccccc1)[C@@H](O)C(=O)O[C@H]1C[C@@]2(O)[C@@H](OC(=O)c3ccccc3)[C@@H]3[C@]4(OC(C)=O)CO[C@@H]4C[C@H](O)[C@@]3(C)C(=O)[C@H](OC(C)=O)C(=C1C)C2(C)C
HEK293 [1]
  IC50: 0.22 µM
HEK293 [2]
  cytotoxicity IC50: > 100 µM
HEK293 [3]
  maximal inhibition: 67

## CCC[C@@H](C=O)NC(=O)[C@H](CC(C)C)NC(=O)[C@H](CC(C)C)NC(=O)OCc1ccccc1
HEK293 [1]
  IC50: 1.6 µM
HEK293 [2]
  cytotoxicity IC50: 2.4 µM
HEK293 [3]
  maximal inhibition: 94

## Nc1ncn([C@@H]2O[C@H](CO)[C@@H](O)[C@H]2O)c(=O)n1
HEK293 [1]
  IC50: 44 µM
HEK293 [2]
  cytotoxicity IC50: > 100 µM
HEK293 [3]
  maximal inhibition: 58

## C[n+]1cc2c3c(ccc2c2ccc4cc5c(cc4c21)OCO5)OCO3
HEK293 [1]
  IC50: 2.9 µM
HEK293 [2]
  cytotoxicity IC50: 6.4 µM
HEK293 [3]
  maximal inhibition: 96

## S=c1nc[nH]c2nc[nH]c12
HEK293 [1]
  IC50: 12 µM
HEK293 [2]
  cytotoxicity IC50: 6.5 µM
HEK293 [3]
  maximal inhibition: 99

## Nc1c2ccccc2nc2ccccc12
HEK293 [1]
  IC50: 21 µM
HEK293 [2]
  cytotoxicity IC50: 100 µM
HEK293 [3]
  maximal inhibition: 102

## Cc1ccc(NC(=O)c2ccc(CN3CCN(C)CC3)cc2)cc1Nc1nccc(-c2cccnc2)n1
HEK293 [1]
  IC50: 60 µM
HEK293 [2]
  cytotoxicity IC50: 41 µM
HEK293 [3]
  maximal inhibition: 64

## C[C@@H](Oc1cc(-n2cnc3ccc(CN4CCN(C)CC4)cc32)sc1C(N)=O)c1ccccc1C(F)(F)F
HEK293 [1]
  IC50: 14 µM
HEK293 [2]
  cytotoxicity IC50: > 100 µM
HEK293 [3]
  maximal inhibition: 98

## NC1(c2ccc(-c3nc4ccn5c(=O)[nH]nc5c4cc3-c3ccccc3)cc2)CCC1
HEK293 [1]
  IC50: 23 µM
HEK293 [2]
  cytotoxicity IC50: 4.4 µM
HEK293 [3]
  maximal inhibition: 103

## NCC(=O)Nc1ccc(-n2nc(C(F)(F)F)cc2-c2ccc3c(ccc4ccccc43)c2)cc1
HEK293 [1]
  IC50: 0.99 µM
HEK293 [2]
  cytotoxicity IC50: 10 µM
HEK293 [3]
  maximal inhibition: 106

## CC(C)C[C@H](NC(=O)[C@@H](NC(=O)c1cccc(-c2ccccc2)n1)[C@@H](C)O)B(O)O
HEK293 [1]
  IC50: 0.059 µM
HEK293 [2]
  cytotoxicity IC50: 0.3 µM
HEK293 [3]
  maximal inhibition: 95

## O=C1NCCN1CCN1CCC(c2cn(-c3ccc(F)cc3)c3ccc(Cl)cc23)CC1
HEK293 [1]
  IC50: 7.4 µM
HEK293 [2]
  cytotoxicity IC50: 6.5 µM
HEK293 [3]
  maximal inhibition: 99

## COc1cccc2c1C(=O)c1c(O)c3c(c(O)c1C2=O)C[C@@](O)(C(C)=O)C[C@@H]3O[C@H]1C[C@H](N)[C@H](O)[C@H](C)O1
HEK293 [1]
  IC50: 0.54 µM
HEK293 [2]
  cytotoxicity IC50: > 100 µM
HEK293 [3]
  maximal inhibition: 66

## C[C@@H]1O[C@@H](O[C@@H]2C=C3CC[C@@H]4[C@H](CC[C@]5(C)[C@@H](c6ccc(=O)oc6)CC[C@]45O)[C@@]3(C)CC2)[C@H](O)[C@H](O)[C@H]1O
HEK293 [1]
  IC50: 0.027 µM
HEK293 [2]
  cytotoxicity IC50: 0.011 µM
HEK293 [3]
  maximal inhibition: 105

## COc1cccc2nc(-c3cccs3)nc(NN3C(=O)C=C(C)C3=O)c12
HEK293 [1]
  IC50: 11 µM
HEK293 [2]
  cytotoxicity IC50: 50 µM
HEK293 [3]
  maximal inhibition: 103

## C=C1C(=O)[C@]23[C@H](O)[C@H]1CC[C@H]2[C@@]12CO[C@]3(O)[C@@H](O)[C@@H]1C(C)(C)CC[C@@H]2O
HEK293 [1]
  IC50: 17 µM
HEK293 [2]
  cytotoxicity IC50: 40 µM
HEK293 [3]
  maximal inhibition: 108

## O=c1[nH]nc(Sc2ncc([N+](=O)[O-])s2)n1-c1ccc2c(c1)OCCO2
HEK293 [1]
  IC50: 8 µM
HEK293 [2]
  cytotoxicity IC50: 12 µM
HEK293 [3]
  maximal inhibition: 97

## C[C@@]12C(=O)OC(=O)[C@]1(C)[C@H]1CC[C@@H]2O1
HEK293 [1]
  IC50: 5.5 µM
HEK293 [2]
  cytotoxicity IC50: > 100 µM
HEK293 [3]
  maximal inhibition: 100

## CN(C)C(=S)SSC(=S)N(C)C
HEK293 [1]
  IC50: 0.51 µM
HEK293 [2]
  cytotoxicity IC50: 0.18 µM
HEK293 [3]
  maximal inhibition: 99

## CCOC(=O)C1=C(C)NC2=C(C(=O)CC(C)(C)C2)C1c1ccc(-c2ccccc2)cc1 (centres undefined)
HEK293 [1]
  IC50: 17 µM
HEK293 [2]
  cytotoxicity IC50: > 100 µM
HEK293 [3]
  maximal inhibition: 89

## Cc1ccc(-c2ncn(-c3ccc(Nc4nccc(-c5cccc(N6CCOCC6)c5)n4)cc3)n2)cn1
HEK293 [1]
  IC50: 1.9 µM
HEK293 [2]
  cytotoxicity IC50: 9.8 µM
HEK293 [3]
  maximal inhibition: 87

## Cn1cc(-c2[nH]c3cc(NC(=O)[C@H](N)C4CCCCC4)cc4c3c2C=NNC4=O)cn1
HEK293 [1]
  IC50: 0.49 µM
HEK293 [2]
  cytotoxicity IC50: > 100 µM
HEK293 [3]
  maximal inhibition: 104

## Cc1ncc(-c2ccnc(Nc3ccc(S(C)(=O)=O)cc3)n2)n1C(C)C
HEK293 [1]
  IC50: 9.2 µM
HEK293 [2]
  cytotoxicity IC50: > 100 µM
HEK293 [3]
  maximal inhibition: 99

## CC[C@@H](C(=O)[C@@H](C)[C@@H](O)[C@H](C)[C@@H]1O[C@@H]([C@@H](CC)C(=O)O)CC[C@@H]1C)[C@H]1O[C@]2(C=C[C@@H](O)[C@]3(CC[C@@](C)([C@H]4CC[C@](O)(CC)[C@H](C)O4)O3)O2)[C@H](C)C[C@@H]1C
HEK293 [1]
  IC50: 17 µM
HEK293 [2]
  cytotoxicity IC50: 27 µM
HEK293 [3]
  maximal inhibition: 106

## Oc1ccc(-c2ccc(-c3cc(Nc4cccc(CNC5CC5)c4)n[nH]3)cc2)c(O)c1
HEK293 [1]
  IC50: 1.5 µM
HEK293 [2]
  cytotoxicity IC50: 27 µM
HEK293 [3]
  maximal inhibition: 108

## OCCCNc1cc(-c2ccnc(Nc3cccc(Cl)c3)n2)ccn1
HEK293 [1]
  IC50: 0.79 µM
HEK293 [2]
  cytotoxicity IC50: 60 µM
HEK293 [3]
  maximal inhibition: 103

## C1CCC(C(CC2CCCCN2)C2CCCCC2)CC1 (centres undefined)
HEK293 [1]
  IC50: 45 µM
HEK293 [2]
  cytotoxicity IC50: 50 µM
HEK293 [3]
  maximal inhibition: 98

## CC(C)C[C@H](NC(=O)CNC(=O)c1cc(Cl)ccc1Cl)B1OC(=O)C(CC(=O)O)(CC(=O)O)O1
HEK293 [1]
  IC50: 0.2 µM
HEK293 [2]
  cytotoxicity IC50: 1.6 µM
HEK293 [3]
  maximal inhibition: 94

## CC[C@H](CC#N)OC(=O)N[C@@H](C)c1cccc(NC(=O)Nc2ccc(-c3cnco3)c(OC)c2)c1
HEK293 [1]
  IC50: 0.14 µM
HEK293 [2]
  cytotoxicity IC50: 20 µM
HEK293 [3]
  maximal inhibition: 99

## CC(=O)[C@]1(O)Cc2c(O)c3c(c(O)c2[C@@H](O[C@H]2C[C@H](N)[C@H](O)[C@H](C)O2)C1)C(=O)c1ccccc1C3=O
HEK293 [1]
  IC50: 0.17 µM
HEK293 [2]
  cytotoxicity IC50: > 100 µM
HEK293 [3]
  maximal inhibition: 86

## CC(=O)OC[C@H]1O[C@@H]([S-])[C@H](OC(C)=O)[C@@H](OC(C)=O)[C@@H]1OC(C)=O.CCP(CC)CC.[Au+]
HEK293 [1]
  IC50: 3.5 µM
HEK293 [2]
  cytotoxicity IC50: 3 µM
HEK293 [3]
  maximal inhibition: 107

## Oc1cccc(-c2nc(N3CCOCC3)c3oc4ncccc4c3n2)c1
HEK293 [1]
  IC50: 1.6 µM
HEK293 [2]
  cytotoxicity IC50: 0.94 µM
HEK293 [3]
  maximal inhibition: 92

## CC[C@]1(O)C[C@H]2CN(CCc3c([nH]c4ccccc34)[C@@](C(=O)OC)(c3cc4c(cc3OC)N(C=O)[C@H]3[C@@](O)(C(=O)OC)[C@H](OC(C)=O)[C@]5(CC)C=CCN6CC[C@]43[C@@H]65)C2)C1
HEK293 [1]
  IC50: 0.16 µM
HEK293 [2]
  cytotoxicity IC50: > 100 µM
HEK293 [3]
  maximal inhibition: 55

## C=CCn1c(=O)c2cnc(Nc3ccc(N4CCN(C)CC4)cc3)nc2n1-c1cccc(C(C)(C)O)n1
HEK293 [1]
  IC50: 1.7 µM
HEK293 [2]
  cytotoxicity IC50: > 100 µM
HEK293 [3]
  maximal inhibition: 99

## CCC[C@H](Nc1nc(-c2ccc(NC(=O)NCC)c(OC)c2)ncc1C)c1cccnc1
HEK293 [1]
  IC50: 0.17 µM
HEK293 [2]
  cytotoxicity IC50: > 100 µM
HEK293 [3]
  maximal inhibition: 72

## CC(C)(C)CC(C)(C)c1ccc(OCCOCC[N+](C)(C)Cc2ccccc2)cc1
HEK293 [1]
  IC50: 9 µM
HEK293 [3]
  maximal inhibition: 103

## CCc1cnn2c(NCc3ccc[n+]([O-])c3)cc(N3CCCC[C@H]3CCO)nc12
HEK293 [2]
  cytotoxicity IC50: > 100 µM
HEK293 [3]
  maximal inhibition: 90

## CCC(=O)N1CCN(c2ccc(-n3c(=O)ccc4cnc5ccc(-c6cnc7ccccc7c6)cc5c43)cc2C(F)(F)F)CC1
HEK293 [2]
  cytotoxicity IC50: 1.5 µM

## CC[C@@H]1C(=O)N(C)c2cnc(Nc3ccc(C(=O)NC4CCN(C)CC4)cc3OC)nc2N1C1CCCC1
HEK293 [2]
  cytotoxicity IC50: > 100 µM
